The supplement of paper PMC13207355
Where a name gives a salt, the structure may show the parent alone.

Tests used:
Settings in all cases: exposure time: 72 h
E21 [1] = patient-derived glioblastoma stem cells of mesenchymal subtype; test: surviving fraction (nuclei count normalised to DMSO); higher = more cells surviving (less toxic)
FT3469 [2] = normal neural stem cell line; test: as above
E31 [3] = patient-derived glioblastoma stem cells of proneural subtype; test: as above
E34 [4] = patient-derived glioblastoma stem cells of proneural subtype; test: as above
E57 [5] = patient-derived glioblastoma stem cells of mesenchymal subtype; test: as above
E28 [6] = patient-derived glioblastoma stem cells of classical subtype; test: as above
E13 [7] = patient-derived glioblastoma stem cells of classical subtype; test: as above
E21 [8] = test: phenotypic distance (Euclidean, principal components) from DMSO controls (arbitrary units); higher = stronger morphological change
FT3469 [9] = test: as above
E31 [10] = test: as above
E34 [11] = test: as above
E57 [12] = test: as above
E28 [13] = test: as above
E13 [14] = test: as above
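For phenotypic distance (Euclidean, principal components) from DMSO controls in this document: cell Painting imaging in 384-well plates, CellProfiler features reduced to at least 20 principal components, Euclidean distance versus same-plate DMSO vehicle wells (0.1% v/v), median over six images per well.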
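For surviving fraction (nuclei count normalised to DMSO) in this document: nuclei counted by high-content imaging of Hoechst-stained cells in laminin-coated 384-well plates, relative to 0.1% DMSO vehicle wells, with staurosporine as cell-death control.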

Nc1nc(=O)c2nc(CNc3ccc(C(=O)N[C@@H](CCC(=O)O)C(=O)O)cc3)cnc2[nH]1 [Folic acid]
Settings	phenotypic distance	surviving fraction
E13 [7], 4.1 nM	–	0.982
E13 [7], 12.3 nM	–	1.06
E13 [7], 37 nM	–	0.964
E13 [7], 111.1 nM	–	1
E13 [7], 333.3 nM	–	1.17
E13 [7], 1000 nM	–	1.02
E13 [7], 3000 nM	–	1.21
E13 [14], 4.1 nM	0.778	–
E13 [14], 12.3 nM	0.355	–
E13 [14], 37 nM	0.501	–
E13 [14], 111.1 nM	0.396	–
E13 [14], 333.3 nM	0.695	–
E13 [14], 1000 nM	0.593	–
E13 [14], 3000 nM	0.805	–
E21 [1], 4.1 nM	–	0.915
E21 [1], 12.3 nM	–	1.07
E21 [1], 37 nM	–	1
E21 [1], 111.1 nM	–	1.07
E21 [1], 333.3 nM	–	1.01
E21 [1], 1000 nM	–	1.07
E21 [1], 3000 nM	–	0.972
E21 [8], 4.1 nM	0.612	–
E21 [8], 12.3 nM	0.186	–
E21 [8], 37 nM	0.499	–
E21 [8], 111.1 nM	0.624	–
E21 [8], 333.3 nM	0.464	–
E21 [8], 1000 nM	0.432	–
E21 [8], 3000 nM	0.539	–
E28 [6], 4.1 nM	–	0.971
E28 [6], 12.3 nM	–	1.05
E28 [6], 37 nM	–	1.11
E28 [6], 111.1 nM	–	0.954
E28 [6], 333.3 nM	–	1.01
E28 [6], 1000 nM	–	1.31
E28 [6], 3000 nM	–	0.925
E28 [13], 4.1 nM	0.522	–
E28 [13], 12.3 nM	0.383	–
E28 [13], 37 nM	0.987	–
E28 [13], 111.1 nM	0.572	–
E28 [13], 333.3 nM	0.378	–
E28 [13], 1000 nM	0.745	–
E28 [13], 3000 nM	0.583	–
E31 [3], 4.1 nM	–	1.13
E31 [3], 12.3 nM	–	0.968
E31 [3], 37 nM	–	0.961
E31 [3], 111.1 nM	–	0.969
E31 [3], 333.3 nM	–	1.03
E31 [3], 1000 nM	–	1.14
E31 [3], 3000 nM	–	0.872
E31 [10], 4.1 nM	0.277	–
E31 [10], 12.3 nM	0.448	–
E31 [10], 37 nM	0.256	–
E31 [10], 111.1 nM	0.408	–
E31 [10], 333.3 nM	0.439	–
E31 [10], 1000 nM	0.452	–
E31 [10], 3000 nM	0.335	–
E34 [4], 4.1 nM	–	1.15
E34 [4], 12.3 nM	–	1.03
E34 [4], 37 nM	–	0.979
E34 [4], 111.1 nM	–	1.12
E34 [4], 333.3 nM	–	0.974
E34 [4], 1000 nM	–	1.04
E34 [4], 3000 nM	–	0.925
E34 [11], 4.1 nM	1.01	–
E34 [11], 12.3 nM	0.395	–
E34 [11], 37 nM	0.531	–
E34 [11], 111.1 nM	0.763	–
E34 [11], 333.3 nM	0.579	–
E34 [11], 1000 nM	0.38	–
E34 [11], 3000 nM	0.822	–
E57 [5], 4.1 nM	–	1.03
E57 [5], 12.3 nM	–	1.03
E57 [5], 37 nM	–	0.994
E57 [5], 111.1 nM	–	0.948
E57 [5], 333.3 nM	–	1.01
E57 [5], 1000 nM	–	1.03
E57 [5], 3000 nM	–	0.903
E57 [12], 4.1 nM	0.364	–
E57 [12], 12.3 nM	0.555	–
E57 [12], 37 nM	0.5	–
E57 [12], 111.1 nM	0.927	–
E57 [12], 333.3 nM	0.637	–
E57 [12], 1000 nM	0.333	–
E57 [12], 3000 nM	0.748	–
FT3469 [2], 4.1 nM	–	1.16
FT3469 [2], 12.3 nM	–	1.03
FT3469 [2], 37 nM	–	1.12
FT3469 [2], 111.1 nM	–	1.01
FT3469 [2], 333.3 nM	–	1.05
FT3469 [2], 1000 nM	–	1.1
FT3469 [2], 3000 nM	–	0.939
FT3469 [9], 4.1 nM	0.931	–
FT3469 [9], 12.3 nM	0.68	–
FT3469 [9], 37 nM	0.676	–
FT3469 [9], 111.1 nM	0.509	–
FT3469 [9], 333.3 nM	0.439	–
FT3469 [9], 1000 nM	1.06	–
FT3469 [9], 3000 nM	0.675	–

COC(=O)[C@@H]1[C@H]2C[C@H]3c4[nH]c5ccccc5c4CCN3C[C@@H]2CC[C@@H]1O [Yohimbine hydrochloride]
Settings	phenotypic distance	surviving fraction
E13 [7], 4.11523 nM	–	0.88
E13 [7], 12.34567901 nM	–	0.94
E13 [7], 37.037 nM	–	1.03
E13 [7], 111.1111111 nM	–	0.984
E13 [7], 333.333 nM	–	1.01
E13 [7], 1000 nM	–	0.876
E13 [7], 3000 nM	–	0.986
E13 [14], 4.11523 nM	0.924	–
E13 [14], 12.34567901 nM	0.56	–
E13 [14], 37.037 nM	0.624	–
E13 [14], 111.1111111 nM	0.517	–
E13 [14], 333.333 nM	0.539	–
E13 [14], 1000 nM	0.622	–
E13 [14], 3000 nM	0.73	–
E21 [1], 4.11523 nM	–	0.896
E21 [1], 12.34567901 nM	–	1.01
E21 [1], 37.037 nM	–	0.994
E21 [1], 111.1111111 nM	–	1.06
E21 [1], 333.333 nM	–	1.03
E21 [1], 1000 nM	–	1.01
E21 [1], 3000 nM	–	1.02
E21 [8], 4.11523 nM	0.527	–
E21 [8], 12.34567901 nM	0.576	–
E21 [8], 37.037 nM	0.624	–
E21 [8], 111.1111111 nM	0.545	–
E21 [8], 333.333 nM	0.676	–
E21 [8], 1000 nM	0.456	–
E21 [8], 3000 nM	0.417	–
E28 [6], 4.11523 nM	–	1.01
E28 [6], 12.34567901 nM	–	0.965
E28 [6], 37.037 nM	–	1.04
E28 [6], 111.1111111 nM	–	0.945
E28 [6], 333.333 nM	–	1.15
E28 [6], 1000 nM	–	0.948
E28 [6], 3000 nM	–	0.948
E28 [13], 4.11523 nM	0.456	–
E28 [13], 12.34567901 nM	0.689	–
E28 [13], 37.037 nM	1.18	–
E28 [13], 111.1111111 nM	0.639	–
E28 [13], 333.333 nM	0.696	–
E28 [13], 1000 nM	0.645	–
E28 [13], 3000 nM	0.333	–
E31 [3], 4.11523 nM	–	0.959
E31 [3], 12.34567901 nM	–	0.999
E31 [3], 37.037 nM	–	1.18
E31 [3], 111.1111111 nM	–	0.859
E31 [3], 333.333 nM	–	0.951
E31 [3], 1000 nM	–	1.07
E31 [3], 3000 nM	–	0.928
E31 [10], 4.11523 nM	0.598	–
E31 [10], 12.34567901 nM	0.58	–
E31 [10], 37.037 nM	0.688	–
E31 [10], 111.1111111 nM	0.658	–
E31 [10], 333.333 nM	0.454	–
E31 [10], 1000 nM	0.521	–
E31 [10], 3000 nM	0.828	–
E34 [4], 4.11523 nM	–	0.932
E34 [4], 12.34567901 nM	–	0.932
E34 [4], 37.037 nM	–	0.912
E34 [4], 111.1111111 nM	–	1.05
E34 [4], 333.333 nM	–	0.932
E34 [4], 1000 nM	–	0.959
E34 [4], 3000 nM	–	0.892
E34 [11], 4.11523 nM	0.815	–
E34 [11], 12.34567901 nM	0.668	–
E34 [11], 37.037 nM	0.596	–
E34 [11], 111.1111111 nM	0.623	–
E34 [11], 333.333 nM	0.866	–
E34 [11], 1000 nM	0.744	–
E34 [11], 3000 nM	0.647	–
E57 [5], 4.11523 nM	–	1.03
E57 [5], 12.34567901 nM	–	1.07
E57 [5], 37.037 nM	–	0.994
E57 [5], 111.1111111 nM	–	0.981
E57 [5], 333.333 nM	–	0.979
E57 [5], 1000 nM	–	0.979
E57 [5], 3000 nM	–	1.01
E57 [12], 4.11523 nM	0.343	–
E57 [12], 12.34567901 nM	0.457	–
E57 [12], 37.037 nM	0.558	–
E57 [12], 111.1111111 nM	0.582	–
E57 [12], 333.333 nM	0.386	–
E57 [12], 1000 nM	0.804	–
E57 [12], 3000 nM	0.576	–
FT3469 [2], 4.11523 nM	–	0.957
FT3469 [2], 12.34567901 nM	–	1.05
FT3469 [2], 37.037 nM	–	0.936
FT3469 [2], 111.1111111 nM	–	0.853
FT3469 [2], 333.333 nM	–	1.04
FT3469 [2], 1000 nM	–	0.975
FT3469 [2], 3000 nM	–	1.01
FT3469 [9], 4.11523 nM	0.568	–
FT3469 [9], 12.34567901 nM	0.613	–
FT3469 [9], 37.037 nM	0.433	–
FT3469 [9], 111.1111111 nM	1.24	–
FT3469 [9], 333.333 nM	0.516	–
FT3469 [9], 1000 nM	0.514	–
FT3469 [9], 3000 nM	0.55	–
